# Source: patent US20260356819A1, “OXOISOINDOLINYL-SUBSTITUTED […] DERIVATIVE AND USE THEREOF” (GLUETACS THERAPEUTICS (SHANGHAI) CO., LTD., priority 2023, published 2026)
# How the values were obtained:
# Type in all cases: cell-based
# Conditions in all cases: compounds at 50 nM and 500 nM
# WEE1 = molecular target: T1, WEE1 (Homo sapiens, UniProt P30291+Q96SW2); experiment: Western blot degradation of WEE1 in hPBMCs (24 h)
# T1 construct: The supernatant was aspirated as the extracted total cell protein; endogenous in cells; host or cells: human peripheral blood mononuclear cells (hPBMCs)
# Summary of the method: (§1)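 PBMC Western blot, 24 h treatment; test levels 50 nM and 500 nM. Band density ÷ internal control, normalised → % remaining; degradation (%) = 1 − remaining.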
# IKZF1 = molecular target: T2, IKZF1 (Homo sapiens, UniProt Q13422+Q96SW2); experiment: Western blot degradation of IKZF1 in hPBMCs (24 h)
# T2 construct: The supernatant was aspirated as the extracted total cell protein; endogenous in cells; host or cells: human peripheral blood mononuclear cells (hPBMCs)
# Summary of the method: as §1
# IKZF3 = molecular target: T3, IKZF3 (Homo sapiens, UniProt Q96SW2+Q9UKT9); experiment: Western blot degradation of IKZF3 in hPBMCs (24 h)
# T3 construct: The supernatant was aspirated as the extracted total cell protein; endogenous in cells; host or cells: human peripheral blood mononuclear cells (hPBMCs)
# Summary of the method: as §1
# CK1α = molecular target: T4, CK1α (Homo sapiens, UniProt P48729+Q96SW2); experiment: Western blot degradation of CK1α in hPBMCs (24 h)
# T4 construct: The supernatant was aspirated as the extracted total cell protein; endogenous in cells; host or cells: human peripheral blood mononuclear cells (hPBMCs)
# Summary of the method: as §1
# IKZF2 = molecular target: T5, IKZF2 (Homo sapiens, UniProt Q96SW2+Q9UKS7); experiment: Western blot degradation of IKZF2 in hPBMCs (24 h)
# T5 construct: The supernatant was aspirated as the extracted total cell protein; endogenous in cells; host or cells: human peripheral blood mononuclear cells (hPBMCs)
# Summary of the method: as §1
# GSPT1 = molecular target: T6, GSPT1 (Homo sapiens, UniProt P15170+Q96SW2); experiment: Western blot degradation of GSPT1 in hPBMCs (24 h)
# T6 construct: The supernatant was aspirated as the extracted total cell protein; endogenous in cells; host or cells: human peripheral blood mononuclear cells (hPBMCs)
# Summary of the method: as §1
# T5 sequence (Q9UKS7 whole entry): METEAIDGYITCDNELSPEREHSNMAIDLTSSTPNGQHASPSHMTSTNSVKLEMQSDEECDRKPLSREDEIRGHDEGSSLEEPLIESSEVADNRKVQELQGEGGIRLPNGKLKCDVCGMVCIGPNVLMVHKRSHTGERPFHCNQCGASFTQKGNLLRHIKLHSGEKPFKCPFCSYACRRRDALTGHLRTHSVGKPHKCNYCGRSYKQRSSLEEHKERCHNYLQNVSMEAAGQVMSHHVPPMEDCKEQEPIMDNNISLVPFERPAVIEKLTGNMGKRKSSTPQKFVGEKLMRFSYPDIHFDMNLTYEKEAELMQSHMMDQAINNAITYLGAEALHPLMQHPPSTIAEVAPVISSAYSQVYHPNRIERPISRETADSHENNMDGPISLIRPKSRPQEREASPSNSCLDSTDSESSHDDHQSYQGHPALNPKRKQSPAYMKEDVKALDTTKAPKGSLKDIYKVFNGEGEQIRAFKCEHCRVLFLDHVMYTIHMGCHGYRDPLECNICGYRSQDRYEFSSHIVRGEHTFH
# T5 sequence (Q96SW2 whole entry): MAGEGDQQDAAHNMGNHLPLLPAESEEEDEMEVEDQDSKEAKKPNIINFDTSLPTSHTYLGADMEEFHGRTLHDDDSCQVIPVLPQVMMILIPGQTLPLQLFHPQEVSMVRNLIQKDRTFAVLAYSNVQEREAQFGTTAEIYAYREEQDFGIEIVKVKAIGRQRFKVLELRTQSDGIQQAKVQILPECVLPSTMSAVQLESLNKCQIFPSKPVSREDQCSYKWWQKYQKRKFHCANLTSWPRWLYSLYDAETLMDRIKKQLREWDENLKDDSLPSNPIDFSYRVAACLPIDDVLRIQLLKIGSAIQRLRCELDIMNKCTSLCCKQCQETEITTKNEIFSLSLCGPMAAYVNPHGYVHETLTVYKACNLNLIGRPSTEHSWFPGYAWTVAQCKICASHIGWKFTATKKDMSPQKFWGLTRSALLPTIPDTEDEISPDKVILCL
# T5 sequence (Q16531 whole entry partner): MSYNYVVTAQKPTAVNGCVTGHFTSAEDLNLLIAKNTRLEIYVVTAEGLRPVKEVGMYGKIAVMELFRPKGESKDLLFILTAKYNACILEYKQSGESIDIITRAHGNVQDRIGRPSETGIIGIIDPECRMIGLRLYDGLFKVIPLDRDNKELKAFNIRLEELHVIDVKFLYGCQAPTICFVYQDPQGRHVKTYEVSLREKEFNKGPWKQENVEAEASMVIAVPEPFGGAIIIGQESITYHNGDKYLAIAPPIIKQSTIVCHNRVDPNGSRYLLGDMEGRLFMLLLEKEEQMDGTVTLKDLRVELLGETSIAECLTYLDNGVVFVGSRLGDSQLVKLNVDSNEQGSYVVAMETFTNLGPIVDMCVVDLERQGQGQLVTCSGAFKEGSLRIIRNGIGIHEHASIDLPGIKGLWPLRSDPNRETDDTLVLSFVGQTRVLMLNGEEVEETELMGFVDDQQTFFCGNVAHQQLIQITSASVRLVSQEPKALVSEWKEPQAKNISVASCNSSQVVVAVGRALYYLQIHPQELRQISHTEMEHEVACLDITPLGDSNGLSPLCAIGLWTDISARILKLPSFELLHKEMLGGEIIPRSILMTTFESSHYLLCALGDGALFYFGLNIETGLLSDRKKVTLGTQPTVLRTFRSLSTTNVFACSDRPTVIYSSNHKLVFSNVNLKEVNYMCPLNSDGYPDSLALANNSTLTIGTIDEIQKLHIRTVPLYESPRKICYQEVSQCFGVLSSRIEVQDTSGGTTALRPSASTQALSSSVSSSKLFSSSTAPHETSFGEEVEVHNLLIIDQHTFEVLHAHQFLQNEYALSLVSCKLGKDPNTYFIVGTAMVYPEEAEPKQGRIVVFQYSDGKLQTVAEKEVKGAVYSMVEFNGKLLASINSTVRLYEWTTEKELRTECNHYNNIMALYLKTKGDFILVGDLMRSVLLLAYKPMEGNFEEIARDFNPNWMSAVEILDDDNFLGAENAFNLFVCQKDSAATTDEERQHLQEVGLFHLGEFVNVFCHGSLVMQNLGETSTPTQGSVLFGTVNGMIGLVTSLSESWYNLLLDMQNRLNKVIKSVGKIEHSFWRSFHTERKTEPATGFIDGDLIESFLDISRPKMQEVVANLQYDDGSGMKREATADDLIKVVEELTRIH
# T4 sequence (P48729 whole entry): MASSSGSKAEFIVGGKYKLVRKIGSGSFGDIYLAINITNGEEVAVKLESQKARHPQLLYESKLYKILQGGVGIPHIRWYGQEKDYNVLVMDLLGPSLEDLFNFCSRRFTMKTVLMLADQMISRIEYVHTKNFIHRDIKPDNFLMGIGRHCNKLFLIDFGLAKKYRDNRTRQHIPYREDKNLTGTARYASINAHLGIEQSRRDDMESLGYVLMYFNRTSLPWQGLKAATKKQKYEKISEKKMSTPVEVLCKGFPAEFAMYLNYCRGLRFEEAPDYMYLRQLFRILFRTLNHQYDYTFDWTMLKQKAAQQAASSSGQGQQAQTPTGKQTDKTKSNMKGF
# T4 sequence (Q96SW2 whole entry): as the sequence (Q96SW2 whole entry) above
# T4 sequence (Q16531 whole entry partner): as the sequence (Q16531 whole entry partner) above
# T2 sequence (Q13422 whole entry): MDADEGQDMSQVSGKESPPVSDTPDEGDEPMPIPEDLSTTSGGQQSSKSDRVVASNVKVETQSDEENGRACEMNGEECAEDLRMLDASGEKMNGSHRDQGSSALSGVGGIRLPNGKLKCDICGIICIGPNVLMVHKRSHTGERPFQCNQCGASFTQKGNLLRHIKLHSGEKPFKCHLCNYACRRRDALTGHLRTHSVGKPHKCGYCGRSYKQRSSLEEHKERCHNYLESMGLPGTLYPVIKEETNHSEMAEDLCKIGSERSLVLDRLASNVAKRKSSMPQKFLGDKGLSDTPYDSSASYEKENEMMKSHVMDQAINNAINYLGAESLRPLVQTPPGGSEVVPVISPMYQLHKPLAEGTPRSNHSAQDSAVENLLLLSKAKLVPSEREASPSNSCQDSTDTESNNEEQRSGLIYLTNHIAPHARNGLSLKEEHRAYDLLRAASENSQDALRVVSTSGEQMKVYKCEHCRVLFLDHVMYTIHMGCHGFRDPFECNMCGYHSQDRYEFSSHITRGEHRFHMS
# T2 sequence (Q96SW2 whole entry): as the sequence (Q96SW2 whole entry) above
# T2 sequence (Q16531 whole entry partner): as the sequence (Q16531 whole entry partner) above
# T6 sequence (P15170 whole entry): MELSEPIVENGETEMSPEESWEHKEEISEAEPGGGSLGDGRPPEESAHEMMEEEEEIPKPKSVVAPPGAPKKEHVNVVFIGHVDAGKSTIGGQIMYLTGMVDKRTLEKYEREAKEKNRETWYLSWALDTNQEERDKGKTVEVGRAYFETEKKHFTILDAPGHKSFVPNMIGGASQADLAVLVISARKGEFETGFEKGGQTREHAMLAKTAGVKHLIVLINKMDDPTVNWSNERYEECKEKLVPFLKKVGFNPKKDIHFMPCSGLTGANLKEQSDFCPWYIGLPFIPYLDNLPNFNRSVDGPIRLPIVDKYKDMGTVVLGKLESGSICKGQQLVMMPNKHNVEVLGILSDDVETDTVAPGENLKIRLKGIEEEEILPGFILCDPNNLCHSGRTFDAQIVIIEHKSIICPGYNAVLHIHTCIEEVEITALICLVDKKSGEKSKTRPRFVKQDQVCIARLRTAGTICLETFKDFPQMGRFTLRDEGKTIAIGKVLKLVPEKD
# T6 sequence (Q96SW2 whole entry): as the sequence (Q96SW2 whole entry) above
# T6 sequence (Q16531 whole entry partner): as the sequence (Q16531 whole entry partner) above
# T3 sequence (Q9UKT9 whole entry): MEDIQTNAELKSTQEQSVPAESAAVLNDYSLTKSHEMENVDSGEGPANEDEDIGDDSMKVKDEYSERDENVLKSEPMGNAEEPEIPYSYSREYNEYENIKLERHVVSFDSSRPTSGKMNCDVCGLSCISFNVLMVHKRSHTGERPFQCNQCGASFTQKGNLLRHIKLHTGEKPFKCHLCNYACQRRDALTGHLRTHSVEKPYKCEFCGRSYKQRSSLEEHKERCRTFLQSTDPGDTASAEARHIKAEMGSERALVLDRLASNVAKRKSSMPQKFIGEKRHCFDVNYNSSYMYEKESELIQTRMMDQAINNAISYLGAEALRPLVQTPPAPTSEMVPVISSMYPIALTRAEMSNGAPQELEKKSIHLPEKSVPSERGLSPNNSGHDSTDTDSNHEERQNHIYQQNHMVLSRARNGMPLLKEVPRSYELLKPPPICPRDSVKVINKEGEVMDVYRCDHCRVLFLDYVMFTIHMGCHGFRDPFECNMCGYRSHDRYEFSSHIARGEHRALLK
# T3 sequence (Q96SW2 whole entry): as the sequence (Q96SW2 whole entry) above
# T3 sequence (Q16531 whole entry partner): as the sequence (Q16531 whole entry partner) above
Compound,WEE1 substrate protein remaining % (WEE1),IKZF1 substrate protein remaining % (IKZF1),IKZF3 substrate protein remaining % (IKZF3),CK1α substrate protein remaining % (CK1α),IKZF2 substrate protein remaining % (IKZF2),GSPT1 substrate protein remaining % (GSPT1)
"CC1(C)CCC(CN2CC3CCC(C2)N3Cc2ccc3c(c2)CN(N2CCC(=O)NC2=O)C3=O)=C(c2ccc(Cl)cc2)C1 [GT-07330, 1-(5-((3-((4′-chloro-5,5-dimethyl-3,4,5,6-tetrahydro-[1,1′-biphenyl]-2-yl)methyl)-3,8-diazabicyclo[3.2.1]octan-8-yl)methyl)-1-oxoisoindolin-2-yl)dihydropyrimidine-2,4(1H,3H)-dione]",A (0% ≤ substrate protein remaining % ≤80%),A (0% ≤ substrate protein remaining % ≤80%),A (0% ≤ substrate protein remaining % ≤80%),B (80%< substrate protein remaining % ≤100%),A (0% ≤ substrate protein remaining % ≤80%),A (0% ≤ substrate protein remaining % ≤80%)
"O=C1CCN(N2Cc3cc(CN4CCCN(c5cccc(Cl)c5Cl)CC4)ccc3C2=O)C(=O)N1 [GT-07431, 1-(5-((4-(2,3-dichlorophenyl)-1,4-diazepan-1-yl)methyl)-1-oxoisoindolin-2-yl)dihydropyrimidine-2,4(1H,3H)-dione]",B (80%< substrate protein remaining % ≤100%),A (0% ≤ substrate protein remaining % ≤80%),B (80%< substrate protein remaining % ≤100%),A (0% ≤ substrate protein remaining % ≤80%),B (80%< substrate protein remaining % ≤100%),B (80%< substrate protein remaining % ≤100%)
"Cc1ccc(N2CCN(Cc3ccc4c(c3)CN(N3CCC(=O)NC3=O)C4=O)CC2)cc1 [GT-06771, 1-(1-oxo-5-((4-(p-tolyl)piperazin-1-yl)methyl)isoindolin-2-yl)dihydropyrimidine-2,4(1H,3H)-dione]",A (0% ≤ substrate protein remaining % ≤80%),B (80%< substrate protein remaining % ≤100%),A (0% ≤ substrate protein remaining % ≤80%),A (0% ≤ substrate protein remaining % ≤80%),A (0% ≤ substrate protein remaining % ≤80%),A (0% ≤ substrate protein remaining % ≤80%)
"O=C1CCN(N2C(=O)c3ccc(CN4CCN(c5c(Cl)ccnc5Cl)CC4)cc3C2=O)C(=O)N1 [GT-06973, 5-((4-(2,4-dichloropyridin-3-yl)piperazin-1-yl)methyl)-2-(2,4-dioxotetrahydropyrimidin-1(2H)-yl)isoindoline-1,3-dione]",A (0% ≤ substrate protein remaining % ≤80%),A (0% ≤ substrate protein remaining % ≤80%),A (0% ≤ substrate protein remaining % ≤80%),B (80%< substrate protein remaining % ≤100%),B (80%< substrate protein remaining % ≤100%),B (80%< substrate protein remaining % ≤100%)
"O=C1CCN(N2C(=O)c3ccc(CN4CC5CC(C4)N5c4cccc(Cl)c4Cl)cc3C2=O)C(=O)N1 [GT-07434, 5-((6-(2,3-dichlorophenyl)-3,6-diazabicyclo[3.1.1]heptan-3-yl)methyl)-2-(2,4-dioxotetrahydropyrimidin-1(2H)-yl)isoindoline-1,3-dione]",B (80%< substrate protein remaining % ≤100%),B (80%< substrate protein remaining % ≤100%),B (80%< substrate protein remaining % ≤100%),A (0% ≤ substrate protein remaining % ≤80%),B (80%< substrate protein remaining % ≤100%),B (80%< substrate protein remaining % ≤100%)
"O=C1CCN(N2Cc3cc(CN4CCN(c5ccncc5)CC4)ccc3C2=O)C(=O)N1 [GT-05437, 1-(1-oxo-5-((4-(pyridin-4-yl)piperazin-1-yl)methyl)isoindolin-2-yl)dihydropyrimidine-2,4(1H,3H)-dione]",B (80%< substrate protein remaining % ≤100%),B (80%< substrate protein remaining % ≤100%),B (80%< substrate protein remaining % ≤100%),B (80%< substrate protein remaining % ≤100%),B (80%< substrate protein remaining % ≤100%),A (0% ≤ substrate protein remaining % ≤80%)
"O=C1CCN(N2C(=O)c3ccc(CN4CC=C(c5ccco5)CC4)cc3C2=O)C(=O)N1 [GT-05317, 2-(2,4-dioxotetrahydropyrimidin-1(2H)-yl)-5-((4-(furan-2-yl)-3,6-dihydropyridin-1(2H)-yl)methyl)isoindoline-1,3-dione]",B (80%< substrate protein remaining % ≤100%),B (80%< substrate protein remaining % ≤100%),B (80%< substrate protein remaining % ≤100%),B (80%< substrate protein remaining % ≤100%),B (80%< substrate protein remaining % ≤100%),A (0% ≤ substrate protein remaining % ≤80%)
"CC1(C)CC(c2ccc(Cl)cc2)=C(CN2CCN(Cc3ccc4c(c3)C(=O)N(N3CCC(=O)NC3=O)C4=O)CC2)CO1 [GT-07304, 5-((4-((4-(4-chlorophenyl)-6,6-dimethyl-5,6-dihydro-2H-pyran-3-yl)methyl)piperazin-1-yl)methyl)-2-(2,4-dioxotetrahydropyrimidin-1(2H)-yl)isoindoline-1,3-dione]",B (80%< substrate protein remaining % ≤100%),B (80%< substrate protein remaining % ≤100%),B (80%< substrate protein remaining % ≤100%),A (0% ≤ substrate protein remaining % ≤80%),B (80%< substrate protein remaining % ≤100%),A (0% ≤ substrate protein remaining % ≤80%)
"O=C1CCN(N2C(=O)c3ccc(CN4CC(C5CCOc6cc(F)ccc65)C4)cc3C2=O)C(=O)N1 (stereo not drawn) [GT-07715, 2-(2,4-dioxotetrahydropyrimidin-1(2H)-yl)-5-((3-(7-fluorochroman-4-yl)azetidin-1-yl)methyl)isoindoline-1,3-dione]",B (80%< substrate protein remaining % ≤100%),B (80%< substrate protein remaining % ≤100%),B (80%< substrate protein remaining % ≤100%),A (0% ≤ substrate protein remaining % ≤80%),B (80%< substrate protein remaining % ≤100%),A (0% ≤ substrate protein remaining % ≤80%)
"O=C1CCN(N2Cc3cc(CN4CCC(N5CCCc6cc(F)ccc65)CC4)ccc3C2=O)C(=O)N1 [GT-07584, 1-(5-((4-(6-fluoro-3,4-dihydroquinolin-1(2H)-yl)piperidin-1-yl)methyl)-1-oxoisoindolin-2-yl)dihydropyrimidine-2,4(1H,3H)-dione]",A (0% ≤ substrate protein remaining % ≤80%),A (0% ≤ substrate protein remaining % ≤80%),B (80%< substrate protein remaining % ≤100%),B (80%< substrate protein remaining % ≤100%),B (80%< substrate protein remaining % ≤100%),A (0% ≤ substrate protein remaining % ≤80%)
"O=C1CCN(N2Cc3cc(CN4CCC(c5ccccc5Cl)CC4)ccc3C2=O)C(=O)N1 [GT-06887, 1-(5-((4-(2-chlorophenyl)piperidin-1-yl)methyl)-1-oxoisoindolin-2-yl)dihydropyrimidine-2,4(1H,3H)-dione]",A (0% ≤ substrate protein remaining % ≤80%),B (80%< substrate protein remaining % ≤100%),B (80%< substrate protein remaining % ≤100%),B (80%< substrate protein remaining % ≤100%),A (0% ≤ substrate protein remaining % ≤80%),A (0% ≤ substrate protein remaining % ≤80%)
